Patent publication US6268395A, “Phorbol derivatives having antivirus activity” (Lead Chemical Co., Ltd., priority 1999, dated 2001)
Entries after “also recorded” stand apart in the source; their conditions may differ. Like-named read-outs stand apart in the source and are kept apart here.

Assays:
HIV = settings: cited from earlier work
P-388 leukemia = P-388 leukemia in mice; cited from earlier work
[1] = Cell growth / viability of MT-4 cells (cytotoxicity); format: cell-based; settings: human, day 5, read-out: CC0 (concentration that reduces viability of MT-4 cells; minimum cytotoxic concentration)
Description: (§1) In the experiments, MT-4 cells were used. The cells were incubated at 37° C. under 5% CO2 in RPMI-1640 medium (FCS, Flow laboratories, North Ryde, Australia) supplemented with 100 μg/mL of streptomycin (Meiji Seika, Tokyo, Japan), and 100 U/mL of penicillin G (Banyu Pharmaceutical, Tokyo, Japan).
(§2) The inhibitory effect of test compounds on HIV-1-induced cytopathogenicity was measured by the method of Harada, Koyanagi & Yamamoto (1985). MT-4 cells were infected for 1 hour with HIV-1 (at TCID50 of 0.001/well) and non-adsorbed virus was removed by washing. Then, the cells were resuspended in RPMI-1640 medium at a concentration of 1.5×10^5 cells/mL. A 200 μL/well of the cell suspension was cultured for 5 days in days in a 96-well culture plate containing various concentrations (12 doses, maximum 1,000 μg/mL and minimum […]) of the test compounds. Control assays were performed in the absence of test compounds with HIV-1-infected and uninfected cultures. On day 5, the IC100 of the test compound required for completely preventing HIV-1-induced CPE(IC) was determined through an optical microscope and the cell growth was examined to give the CC0 that reduces the viability of MT-4 cells.

protein kinase C (PKC) = format: biochemical, mouse; settings: for % Activity of PKC: relative to TPA positive control; for activation of PKC (in words): concentration not given
Description: After addition of 0.55 nM [γ-^32 P] ATP (50×10^3 cpm/nmol), the reaction mixture was mixed and allowed to be kept at 37° C. for 30 minutes. Then the reactions were terminated by the addition of 10 μl of ice-cold stop reagent. Aliquots of 35 μL were transferred to the center of peptide binding discs. After 10 minutes, the discs were washed two times with 75 mM orthophosphoric acid. The activity of ^32 P-labeled samples was counted in 10/mL of a scintillation fluid for 1 minute. […] Blank (in the absence of PKC) and control (in the absence of TPA or tested samples) were also carried out. One unit of PKC was defined as that amount of enzyme, which incorporated 1 nmol of phosphate from ATP into its substrate, peptide, per minute under the assay conditions, described above.

HIV-1 = test: Inhibition of HIV-1-induced cytopathic effect (CPE) in MT-4 cells; format: cell-based, HIV-1 (LAV-1) in human MT-4 cells; settings: for IC100: Human immunodeficiency virus 1, MT4, 120 h, read-out: Anti-HIV-1 IC100 (complete prevention of HIV-1-induced CPE); for CPE inhibitory effect (in words): HIV-1; for r = CC0/IC100: 7200 min; for anti-HIV-1 activity: at concentrations up to 500 μg/mL
Description: as §1
HIV-1 was obtained from culture supernatant of MOLT-4 cells that had been persistently infected with LAV-1.
j) Assay of cytopathic effect(CPE) of HIV-1 in MT-4 cells
as §2
A variety of phorbol esters and related compounds were tested for their ability to inhibit the replication and infectivity of HIV-1 in MT-4 cells, a human CD4-positive cell line continually infected with HTLV-1, and the results are presented in Table 3.

[2] = MT-4 cells, 5 days, NE: Not effective
[3] = 10 ng/mL (standard concentration)

SMILES | MCC at 120 h [1] [µg/mL] | % Activity of PKC (protein kinase C (PKC); 10 ng/mL) [%] | % Activity of PKC (protein kinase C (PKC); 2.7 μg/mL) [%] | CPE inhibitory effect (in words) (HIV-1; MT-4 cells) | r = CC0/IC100 (HIV-1; MT-4 cells) | IC100 (HIV-1; [2]) [µg/mL] | anti-HIV-1 activity (HIV-1) | other results
CC(=O)O[C@@]12C[C@@H](C)[C@@]3(O)[C@@H](C=C(CO)C[C@]4(O)C(=O)C(C)=C[C@@H]34)[C@@H]1C2(C)C [12-Deoxyphorbol-13-acetate] |  |  |  |  |  |  |  | anti-HIV activity (HIV): having an anti-HIV activity
C/C=C(\C)C(=O)O[C@@H]1[C@@H](C)[C@@]2(O)[C@@H](C=C(CO)C[C@]3(O)C(=O)C(C)=C[C@@H]23)[C@@H]2C(C)(C)[C@]12OC(=O)CCCCCCCCC [12-O-tigloylphorbol-13-decanoate] |  |  |  |  |  |  |  | antileukemic activity (P-388 leukemia): demonstrated antileukemic activity
CC(=O)OCC1=C[C@H]2[C@@H]3C(C)(C)[C@]3(OC(C)=O)[C@H](OC(C)=O)[C@@H](C)[C@]2(O)[C@@H]2C=C(C)[C@H](O)[C@@]2(O)C1 [Compound 15, 3-Deoxo-3β-hydroxyphorbol-12,13,20-triacetate] | 1000 | 0 | 26 | loss of CPE inhibitory effect | 2.00 |  |  | IC100 (HIV-1): 500 µg/mL
CO[C@]12CC(COC(C)=O)=C[C@H]3[C@@H]4C(C)(C)[C@]4(OC(C)=O)[C@H](OC(C)=O)[C@@H](C)[C@]3(O)[C@@H]1C=C(C)C2=O [Compound 16, 4-O-Methylphorbol-12,13,20-triacetate] | 125 | 0 | 0 | increased in the CPE inhibitory effect | 3.99 | 31.3 |  | PKC activation (in words) (protein kinase C (PKC); 10 ng to 2.7 μg/mL): no activation; activation of PKC (in words) (protein kinase C (PKC)): no activation of PKC
CC(=O)OCC1=C[C@H]2[C@@H]3C(C)(C)[C@]3(OC(C)=O)[C@H](OC(C)=O)[C@@H](C)[C@]2(OC(C)=O)[C@@H]2C=C(C)C(=O)[C@@]2(OC(C)=O)C1 [Compound 17, Phorbol-4,9,12,13,20-pentaacetate] | 250 | 0 |  |  | 2.00 | 125 |  | PKC activation (in words) (protein kinase C (PKC); [3]): did not activate PKC
C=C(C)C1C(OC(C)=O)=CC(C)C2(O)C1C=C(COC(=O)CCCCCCC/C=C\C/C=C\CCCCC)CC1(O)C(=O)C(C)=CC12 (centres unmarked) [Compound 18, 13-O-Acetylcrotophorbolone-enol-20-linoleate] | 125 | 24 | 24 |  | 16.0 | 7.81 |  | Anti-HIV-1 IC100 (complete prevention of HIV-1-induced CPE) (HIV-1; [2]): 7.8 µg/mL; enhancement of CPE inhibitory activity (HIV-1; relative to compound 1): 2 times
CC1=C[C@H]2[C@@]3(O)[C@H](C)[C@@H](O)[C@]4(O)[C@H]([C@@H]3C=C(CO)C[C@@]2(O)C1=O)C4(C)C [Compound 19, 4α-Phorbol] | 500 | 1 | 5 | did not show CPE inhibitory effect; also recorded: showed no effect |  |  | did not show anti-HIV-1 activity | activation of PKC (in words) (protein kinase C (PKC)): weak activators of PKC
CC1=C[C@@H]2[C@@H](CC(CO)=C[C@H]3[C@@H]4C(C)(C)[C@]4(O)[C@H](O)[C@@H](C)[C@]23O)C1=O [Compound 20, 4-Deoxy-4α-phorbol] | 500 | 0 | 25 | did not show CPE inhibitory effect; also recorded: showed no effect |  |  | did not show anti-HIV-1 activity | activation of PKC (in words) (protein kinase C (PKC)): weak activators of PKC
CC(=O)OCC1=C[C@H]2[C@@H]3C(C)(C)[C@]3(OC(C)=O)[C@H](OC(C)=O)[C@@H](C)[C@]2(O)[C@@H]2C=C(C)C(=O)[C@]2(O)C1 [Compound 21, 4α-Phorbol-12,13,20-triacetate] | 500 | 0 | 39 |  | 2.00 | 250 |  | PKC activation (in words) (protein kinase C (PKC); high concentrations): enhanced activation of PKC
CCCC(=O)OCC1=C[C@H]2[C@@H]3C(C)(C)[C@]3(OC(=O)CCC)[C@H](OC(=O)CCC)[C@@H](C)[C@]2(O)[C@@H]2C=C(C)C(=O)[C@]2(O)C1 [Compound 22, 4α-Phorbol-12,13,20-tributyrate] | 62.5 | 0 | 0 | showed no effect |  |  | did not show anti-HIV-1 activity | PKC activation (in words) (protein kinase C (PKC); 10 ng to 2.7 μg/mL): no activation
CC(=O)OCC12CC3(O)C(=O)C1(C)C1C3C3(O)C(C)C(OC(C)=O)C4(OC(C)=O)C(C3C12)C4(C)C (centres unmarked) [Compound 24, Lumiphorbol-12,13,20-triacetate] | 500 | 0 | 93 | showed no effect |  |  | did not show anti-HIV-1 activity | PKC activation (in words) (protein kinase C (PKC); [3]): no activation was observed; PKC activation (in words) (protein kinase C (PKC); high concentrations): enhanced activation of PKC
